Data from US20250136559A1, “SMO MODULATOR COMPOUNDS” (OMASS THERAPEUTICS LIMITED, priority 2022, published 2025).

Assays:
Format in all cases: cell-based
mouse SMO^D473H = target: T1, mouse SMO^D473H (Mus musculus, UniProt P56726, D477H); test: Mouse assay: Gli1 qPCR in MEF cells stably expressing mouse SMO D473H; settings: mSHh-treated, 24 hours; for IC50: Gli1 inhibition by qPCR, read-out: Mouse D473H pIC50 (converted); for Mouse D473H % Inh: percentage Gli1 inhibition
T1 construct: expressed in transfected cells
Description: (§1) Cell culture. All materials were purchased from Sigma-Aldrich, unless otherwise stated.
(§2) Compound treatment. […] After 1 hour incubation, cells were treated with assay medium containing mSHh prepared at 2.5× of final assay concentrations specified in the text and incubated for a further 24 hours at 37′C in a humidified 95% air/5% CO2 atmosphere prior to qPCR analysis.
(§3) Cell lysis and one-step qPCR. The Cells-to-CT™ 1-Step TaqMan® Kit was used in conjunction with TaqMan primer-probe assays for the detection of Gli1 (FAM, Mm00494654_m1) and Gusb (VIC, Mm01197698_m1) genes (all purchased from Life Technologies). Following 24 hours cell treatment, spent medium was removed and cells were washed with PBS before the application of lysis and stop solution as per manufacturer's instructions. The qPCR reactions were run in a 384-well PCR plate using master mix prepared according to manufacturer's instructions and cell lysate samples from treatment wells. Real-time PCR amplification was detected using the Bio-Rad CFX384 Touch PCR system. Four experimental replicates (two cell replicates and two qPCR replicates) were performed for each compound concentration tested. Real-time data were analysed using the CFX Maestro software (Bio-Rad) and obtained expression values were converted to percentage Gli1 inhibition by normalising to the average Gli1 expression of mSHh-treated control samples.

mouse SMO^W535L = target: T2, mouse SMO^W535L (Mus musculus, UniProt P56726, W539L); test: Mouse assay: Gli1 qPCR in MEF cells stably expressing mouse SMO W535L; settings: mSHh-treated, 24 hours; for IC50: Gli1 inhibition by qPCR, read-out: Mouse W535L pIC50 (converted); for Mouse W535L % Inh: percentage Gli1 inhibition
T2 construct: expressed in transfected cells
Description: as §1, §2, §3

mouse SMO^WT = target: T3, mouse SMO^WT (Mus musculus, UniProt P56726); test: Mouse assay: Gli1 qPCR in MEF cells stably expressing mouse SMO WT; settings: mSHh-treated, 24 hours; for IC50: Gli1 inhibition by qPCR, read-out: Mouse WT pIC50 (converted); for Mouse WT % Inh: percentage Gli1 inhibition
T3 construct: expressed in transfected cells
Description: as §1, §2, §3

T2 sequence (P56726 33-793 W539L): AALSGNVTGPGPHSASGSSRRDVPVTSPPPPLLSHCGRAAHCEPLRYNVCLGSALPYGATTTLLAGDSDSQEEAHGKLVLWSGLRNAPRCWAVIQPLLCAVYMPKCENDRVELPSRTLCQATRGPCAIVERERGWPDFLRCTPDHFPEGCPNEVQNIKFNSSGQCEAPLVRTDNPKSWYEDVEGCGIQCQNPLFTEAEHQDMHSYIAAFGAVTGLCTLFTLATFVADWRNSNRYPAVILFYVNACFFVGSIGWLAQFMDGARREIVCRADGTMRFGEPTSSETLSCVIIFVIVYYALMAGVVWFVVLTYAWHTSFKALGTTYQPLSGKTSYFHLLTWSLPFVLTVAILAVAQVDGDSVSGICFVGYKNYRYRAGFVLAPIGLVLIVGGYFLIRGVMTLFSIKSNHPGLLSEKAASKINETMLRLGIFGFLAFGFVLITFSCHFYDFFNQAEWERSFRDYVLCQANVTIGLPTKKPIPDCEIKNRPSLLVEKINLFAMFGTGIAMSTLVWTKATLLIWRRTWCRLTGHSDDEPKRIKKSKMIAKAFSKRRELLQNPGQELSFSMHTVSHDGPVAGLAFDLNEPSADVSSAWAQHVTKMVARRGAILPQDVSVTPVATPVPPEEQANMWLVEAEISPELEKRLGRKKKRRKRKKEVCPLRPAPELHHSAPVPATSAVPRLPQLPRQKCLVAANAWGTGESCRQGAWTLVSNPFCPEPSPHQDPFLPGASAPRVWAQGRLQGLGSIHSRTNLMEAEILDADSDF
T3 sequence (P56726 33-793): as the sequence (P56726 33-793 W539L) above, with L507W counted along it
T1 sequence (P56726 33-793 D477H): as the sequence (P56726 33-793 W539L) above, with D445H, L507W counted along it

SMILES	IC50 (mouse SMO^D473H) [nM]	Mouse D473H % Inh (mouse SMO^D473H) [%]	IC50 (mouse SMO^W535L) [nM]	Mouse W535L % Inh (mouse SMO^W535L) [%]	IC50 (mouse SMO^WT) [nM]	Mouse WT % Inh (mouse SMO^WT) [%]
COc1cccc(Cc2n[nH]c(-c3ccc(NC(=O)c4cccc(CN5CCS(=O)(=O)CC5)c4)cc3)n2)c1 [Example 3-22, 3-[(1,1-Dioxo-1,4-thiazinan-4-yl)methy]-N-[4-[5-[(3-methoxyphenyl)methyl]-1H-1,2,4-triazol-3-yl]phenyl]benzamide]	63.1	98.2	31.6	60.1	7.94	98.5
Cc1cc(Cc2n[nH]c(-c3ccc(NC(=O)c4cccc(CN5CCS(=O)(=O)CC5)c4)cc3)n2)ccc1Br [Example 3-27, N-[4-[5-[(4-Bromo-3-methylphenyl)methyl]-1H-1,2,4-triazol-3-yl]phenyl]-3-[(1,1-dioxo-1,4-thiazinan-4-yl)methyl]benzamide]	631	97.0	158	57.3	15.8	99.3
O=C(Nc1ccc(-c2nc(C3CC3)n[nH]2)cc1)c1cccc(CN2CCSCC2)c1 [Example 1-1, N-[4-(3-cyclopropyl-1H-1,2,4-triazol-5-yl)phenyl]-3-(thiomorpholin-4-ylmethyl)benzamide]	200	99.3	251	66.8	20	99.4
O=C(Nc1ccc(-c2nc(C3CC3)n[nH]2)cc1)c1cc(CN2CCS(=O)(=O)CC2)ccc1F [Example 2-1, N-[4-(5-Cyclopropyl-1H-1,2,4-triazol-3-yl)phenyl]-5-[(1,1-dioxo-1,4-thiazinan-4-yl)methyl]-2-fluorobenzamide]	200	95.3	79.4	68.2	15.8	96.5
O=C(Nc1ccc(-c2nc(Cc3ccc(Cl)cc3)n[nH]2)cc1)c1cccc(CN2CCS(=O)(=O)CC2)c1 [Example 3-23, N-[4-[3-[(4-Chlorophenyl)methyl]-1H-1,2,4-triazol-5-yl]phenyl]-3-[(1,1-dioxo-1,4-thiazinan-4-yl)methyl]benzamide]	316	95.0	25.1	58.2	7.94	99.5
O=C(Nc1ccc(-c2nc(C3CCCN(Cc4ccccc4)C3)n[nH]2)cc1)c1cccc(CN2CCS(=O)(=O)CC2)c1 (stereo not drawn) [Example 3-9, N-[4-[3-(1-Benzylpiperidin-3-yl)-1H-1,2,4-triazol-5-yl]phenyl]-3-[(1,1-dioxo-1,4-thiazinan-4-yl)methyl]benzamide]	316	93.8	63.1	63.2	31.6	95.1
O=C(Nc1ccc(-c2nc(C3CC3)n[nH]2)cc1)c1ccc(Cl)c(CN2CCS(=O)(=O)CC2)c1 [Example 2-5, 4-Chloro-N-[4-(5-cyclopropyl-1H-1,2,4-triazol-3-yl)phenyl]-3-[(1,1-dioxo-1,4-thiazinan-4-yl)methyl]benzamide]	158	94.4	100	72.2	15.8	95.5
O=C(Nc1ccc(-c2nc(Cc3cccc(F)c3)n[nH]2)cc1)c1cccc(CN2CCS(=O)(=O)CC2)c1 [Example 3-20, 3-[(1,1-Dioxo-1,4-thiazinan-4-yl)methy]-N-[4-[3-[(3-fluorophenyl)methyl]-1H-1,2,4-triazol-5-yl]phenyl]benzamide]	251	96.8	25.1	66.1	15.8	99.0
Cc1ccc(Cc2n[nH]c(-c3ccc(NC(=O)c4cccc(CN5CCS(=O)(=O)CC5)c4)cc3)n2)cc1 [Example 3-18, 3-[(1,1-Dioxo-1,4-thiazinan-4-yl)methyl]-N-[4-[5-[(4-methylphenyl)methyl]-1H-1,2,4-triazol-3-yl]phenyl]benzamide]	79.4	98.1	25.1	65.7	3.16	98.5
COc1ccc(-c2n[nH]c(-c3ccc(NC(=O)c4cccc(CN5CCS(=O)(=O)CC5)c4)cc3)n2)cc1 [Example 3-12, 3-[(1,1-Dioxo-1,4-thiazinan-4-yl)methyl]-N-[4-[5-(4-methoxyphenyl)-1H-1,2,4-triazol-3-yl]phenyl]benzamide]	200	97.5	316	53.3	12.6	99.0
CC1(C)CN(Cc2cccc(C(=O)Nc3ccc(-c4nc(C5CC5)n[nH]4)cc3)c2)CCS1(=O)=O [Example 1-3, N-[4-(3-cyclopropyl-1H-1,2,4-triazol-5-yl)phenyl]-3-[(2,2-dimethyl-1,1-dioxo-1,4-thiazinan-4-yl)methyl]benzamide]	63.1	99.7	158	62.6	20	99.4

Next, values leading:

IC50 (mouse SMO^D473H) [nM]	Mouse D473H % Inh (mouse SMO^D473H) [%]	IC50 (mouse SMO^W535L) [nM]	Mouse W535L % Inh (mouse SMO^W535L) [%]	IC50 (mouse SMO^WT) [nM]	Mouse WT % Inh (mouse SMO^WT) [%]	SMILES
794	94.9	501	65.9	79.4	98.9	Cl.O=C(Nc1ccc(-c2nnc(C3CC3)o2)cc1)c1cccc(CN2CCS(=O)(=O)CC2)c1 [Example 4-8, N-[4-(5-Cyclopropyl-1,3,4-oxadiazol-2-yl)phenyl]-3-[(1,1-dioxo-1,4-thiazinan-4-yl)methyl]benzamide]
316	99.0	501	77.4	50.1	98.8	O=C(Nc1ccc(-c2noc(C3CCC3)n2)cc1)c1cccc(CN2CCS(=O)(=O)CC2)c1 [Example 4-13, N-[4-(5-Cyclobutyl-1,2,4-oxadiazol-3-yl)phenyl]-3-[(1,1-dioxo-1,4-thiazinan-4-yl)methyl]benzamide]
316	99.1	794	70.0	39.8	99.6	CN(C)c1nnc(-c2ccc(NC(=O)c3cccc(CN4CCS(=O)(=O)CC4)c3)cc2)o1 [Example 4-9, N-[4-[5-(Dimethylamino)-1,3,4-oxadiazol-2-yl]phenyl]-3-[(1,1-dioxo-1,4-thiazinan-4-yl)methyl]benzamide]
31.6	99.4	31.6	82.0	6.31	99.0	O=C(Nc1ccc(-c2noc(Cc3ccccc3)n2)cc1)c1cccc(CN2CCS(=O)(=O)CC2)c1 [Example 4-15, N-[4-(5-Benzyl-1,2,4-oxadiazol-3-yl)phenyl]-3-[(1,1-dioxo-1,4-thiazinan-4-yl)methyl]benzamide]
7.94	98.1	63.1	82.7	2	98.8	Cc1oc(-c2ccc(NC(=O)c3ccc(Cl)c(CN4CCS(=O)(=O)CC4)c3)cn2)nc1C1CC1 [Example 5-2, 4-Chloro-N-[6-(4-cyclopropyl-5-methyl-1,3-oxazol-2-yl)pyridin-3-yl]-3-[(1,1-dioxo-1,4-thiazinan-4-yl)methyl]benzamide]
